Like-named read-outs stand apart in the source and are kept apart here.
What was measured:
[1] = test system: influenza A virus (H1N1, A/WSN/33); assay: Efficacy on mice, IAV mouse infection model; format: in vivo, Female BALB/c mice; conditions: 15 mpk orally twice a day; for Body weight change / Survival rate: infected mice; for Body weight change: during the experiment; for Survival rate: to the predetermined experimental end point; for Mean difference of virus titer compared with the solvent group / Influenza Virus Titer in lung tissue: mice, 5th day after infection
From the text: Female BALB/c mice were inoculated with influenza A virus (H1N1, A/WSN/33) by intranasal administration to establish an IAV mouse infection model. The vehicle, Compound III-2 (15 mpk) or oseltamivir phosphate (15 mpk) were orally administered twice a day. Animal weight and survival status were monitored daily during the test, and on the 5th day, some animals were killed to take lung tissue for virus titer detection, and the remaining mice were used for survival rate monitoring. The in vivo anti-influenza virus efficacy of the test compound was determined by virus titer in lung tissue, mouse body weight change and survival rate.

[2] = test system: influenza virus A/PR/8/34 (H1N1); assay: organism not typed; format: cell-based; conditions: 120 h
in vitro = format: cell-based; conditions: dog
Protocol: Method for cytotoxicity study: The cytotoxicity assay and antiviral activity assay of the compounds were performed in parallel, except for the absence of virus, other experimental conditions were consistent with the antiviral activity assay. After 5 days of culture, the cell viability was measured using the cell viability detection kit CCK8. Raw data were used for calculating compound cytotoxicity (CC50) (see Table 1 for results).

in vivo = assay: in vivo; parameters: species or system SD rats; conditions: SD, rat, iv, 0.25 mg/kg
Protocol: Intravenous injection: about 2 mg of Compound 11-5, Compound 11-6 and Compound 1-77 were accurately weighed out and added with appropriate amount of DMA, followed by vortex to a clean solution. An appropriate volume of 30% Solutol HS-15 aqueous solution and saline were added and vortexed, so that DMA: 30% Solutol HS-15: saline was 20:20:60 (v/v/v). The solution was filtered to give a 0.05 mg·mL^−1 pharmaceutical preparation. SD rats were given a single injection of 0.25 mg·kg^−1 of Compounds 11-5, 11-6 and 1-77 intravenously. 0.20 mL of blood was collected from the jugular vein before administration and 0.083 h, 0.25 h, 0.5 h, 1 h, 2 h, 4 h, 8 h, 12 h and 24 h after administration, and placed in an EDTA-K2 anticoagulation tube. 150 μL of whole blood was accurately pipetted immediately, and added into a test tube to which 450 μL of acetonitrile has been added to precipitate proteins, and the tube was vortexed, and placed on wet ice. It was stored in a −90˜−60° C. refrigerator for biological sample analysis. The concentration of the corresponding compound in the plasma of S-D rats was determined by LC-MS/MS analysis. The corresponding pharmacokinetic parameters were calculated using a non-compartmental model in Pharsight Phoenix 7.0.

[3] = parameters: species or system SD rats; conditions: SD, rat, in vivo, po, 3 mg/kg
Protocol: Intragastric administration: about 4 mg of Compound III-2 was accurately weighed out and added with appropriate amount of PEG400, followed by vortex to a clean solution. An appropriate volume of 30% Solutol HS-15 aqueous solution and saline were added, and followed by vortex to give a pharmaceutical preparation of a concentration of 0.3 mg·mL^−1, with PEG400: 30% Solutol HS-15: saline=2:2:6 (v/v/v). SD rats were given a single oral administration of 3.0 mg·kg^−1 of Compounds III-2, and the concentration of Compound II-6 in the plasma of S-D rats was determined before administration and 0.25 h, 0.5 h, 1 h, 2 h, 4 h, 8 h, 12 h and 24 h after administration.

[4] = MDCK cells, A/PR/8/34 (H1N1), 5 days, CCK8, read-out: EC50

Row | SMILES | EC50 [2, 4] [nM] | CC50 at 5 days (in vitro) [nM] | further results
1 | CCOC(=O)C1=C[C@@H](OC(CC)CC)[C@H](NC(C)=O)[C@@H](N)C1 [Oseltamivir phosphate, oseltamivir phosphate, reference compound] |  |  | Body weight change [1]: remained stable; Survival rate [1]: 100%; Mean difference of virus titer compared with the solvent group [1]: 3.46 Log 10 (number of plaques per gram of lung tissue); Influenza Virus Titer in lung tissue ([1]; 15 mg/kg): 3.74 ± 0.5205 Log10 (plaques number/gram of; Influenza Virus Titer in lung tissue ([1]; listed as oseltamivir phosphate, 15 mg/kg): 3.74 Log10 (plaques number/gram of
2 | O=C1c2c(O)c(=O)ccn2N([C@@H]2c3ccccc3SCc3c2ccc(F)c3F)CN1C1C2CC1C2F (stereo partly drawn) [Compound I-66] | 0.58 | > 1000 | 
3 | C=C1CCN2C(=O)c3c(O)c(=O)ccn3N([C@@H]3c4ccccc4SCc4c3ccc(F)c4F)[C@@H]2C1 [II-65] | 0.45 | > 1000 | 
4 | O=C1c2c(O)c(=O)ccn2N([C@@H]2c3ccccc3SCc3c2ccc(F)c3F)CN1C1CC2(CC2)C1 [Compound I-14] | 0.32 | > 1000 | 
5 | O=C1c2c(O)c(=O)ccn2N([C@H]2c3ccccc3CSc3ccccc32)CN1C12CC(C1)C2 [Compound I-69] | 0.35 | > 1000 | 
6 | O=C1c2c(O)c(=O)ccn2N([C@H]2c3ccccc3CSc3ccccc32)CN1C1CC2(CC2)C1 [Compound I-9] | 0.4 | > 1000 | 
7 | O=C1c2c(O)c(=O)ccn2N([C@@H]2c3ccccc3SCc3c2ccc(F)c3F)CN1C12CC(C1)C2 [Compound I-77] | 0.16 | > 1000 | AUC(0-t) (in vivo): 307 ng·h/mL; Vd (in vivo): 2.77 L/kg; clearance (in vivo): 13 mL/min/kg; half-life (in vivo): 2.96 h
8 | O=C1c2c(O)c(=O)ccn2N([C@@H]2c3ccccc3SCc3c2ccc(F)c3F)CN1C1CC2(CCC2)C1 [Compound I-5] | 0.44 | > 1000 | 
9 | O=C1C2N(CC3CCCN13)C(=O)c1c(O)c(=O)ccn1N2[C@@H]1c2ccccc2SCc2c1ccc(F)c2F (stereo partly drawn) [II-101] | 0.94 | > 1000 | 
10 | O=C1c2c(O)c(=O)ccn2N([C@H]2c3ccc(F)cc3CSc3ccccc32)CN1C12CC(C1)C2 [Compound I-83] | 0.21 | > 1000 | 
11 | O=C1c2c(O)c(=O)ccn2N([C@@H]2c3ccccc3SCc3c2ccc(F)c3F)[C@@H]2CC=CCN12 [II-66] | 0.18 | > 1000 | 
12 | COCC1COC[C@@H]2N1C(=O)c1c(O)c(=O)ccn1N2[C@@H]1c2ccccc2SCc2c1ccc(F)c2F (stereo partly drawn) [II-8] | 0.47 | > 1000 | 
13 | O=C1c2c(O)c(=O)ccn2N([C@@H]2c3ccccc3SCc3cccc(Cl)c32)[C@@H]2COC3(CC3)CN12 [II-22] | 0.36 | > 1000 | 
14 | O=C1c2c(O)c(=O)ccn2N([C@H]2c3ccccc3CSc3ccccc32)[C@@H]2COCC3(CC3)N12 [II-1] |  | > 1000 | EC50 ([2]; MDCK): 0.45 nM
15 | COCC1CN2C(=O)c3c(O)c(=O)ccn3N([C@@H]3c4ccccc4SCc4c3ccc(F)c4F)[C@@H]2CO1 (stereo partly drawn) [II-29] | 0.57 | > 1000 | 
16 | O=C1c2c(O)c(=O)ccn2N([C@H]2c3ccccc3CSc3ccccc32)[C@@H]2COC3(CC3)CN12 [II-2] | 0.51 | > 1000 | 
17 | O=C1c2c(O)c(=O)ccn2N([C@@H]2c3ccccc3SCc3c(F)cccc32)[C@@H]2COC3(CC3)CN12 [II-10] | 0.24 | > 1000 | 
18 | O=C1c2c(O)c(=O)ccn2N([C@@H]2c3ccccc3SCc3c2ccc(F)c3F)[C@@H]2CC(OC3CC3)CCN12 (stereo partly drawn) [II-34] | 0.39 | > 1000 | 
19 | O=C1c2c(O)c(=O)ccn2N([C@@H]2c3ccccc3SCc3c2ccc(F)c3F)CN1CCOC1CC1 [Compound I-7] | 0.83 | > 1000 | 

Row | SMILES | EC50 [2, 4] [nM] | CC50 at 5 days (in vitro) [nM] | further results
20 | O=C1c2c(O)c(=O)ccn2N([C@@H]2c3ccccc3SCc3c2ccc(F)c3F)CN1CCSC1CC1 [Compound I-8] | 0.75 | > 1000 | 
21 | COC(=O)OCOc1c2n(ccc1=O)N([C@@H]1c3ccccc3SCc3c1ccc(F)c3F)[C@@H]1COC3(CC3)CN1C2=O [III-2] |  |  | AUC(0-t) [3]: 1377 ng·h/mL; Cmax [3]: 253 ng/mL; F [3]: 47.2%; T1/2 [3]: 3.32 h; Tmax [3]: 1.67 h; Body weight change [1]: remained stable; Survival rate [1]: 100%; Mean difference of virus titer compared with the solvent group [1]: 3.92 Log 10 (number of plaques per gram of lung tissue); Influenza Virus Titer in lung tissue ([1]; 15 mg/kg): 3.28 Log10 (plaques number/gram of; Influenza Virus Titer in lung tissue ([1]; listed as Compound III-2, 15 mg/kg): 3.28 ± 0.2813 Log10 (plaques number/gram of
22 | O=C1c2c(O)c(=O)ccn2N([C@@H]2c3ccccc3SCc3c2ccc(F)c3F)[C@@H]2COC3(CC3)CN12 [II-6] | 0.26 | > 1000 | AUC(0-t) (in vivo): 276 ng·h/mL; Vd (in vivo): 3.12 L/kg; clearance (in vivo): 13.6 mL/min/kg; half-life (in vivo): 2.97 h
23 | O=C1c2c(O)c(=O)ccn2N([C@@H]2c3ccccc3SCc3c2ccc(F)c3F)[C@@H]2C/C(=C/F)CCN12 [II-67] | 0.48 | > 1000 | 
24 | O=C1c2c(O)c(=O)ccn2N([C@H]2c3ccccc3CSc3ccccc32)CN1C1CC2(CCC2)C1 [Compound I-1] | 0.5 | > 1000 | 
25 | O=C1c2c(O)c(=O)ccn2N([C@@H]2c3ccccc3SCc3cccc(F)c32)[C@@H]2COCC3(CC3)N12 [II-17] |  | > 1000 | EC50 ([2]; MDCK): 0.26 nM
26 | O=C1c2c(O)c(=O)ccn2N([C@H]2c3ccc(F)cc3CSc3ccccc32)[C@@H]2COC3(CC3)CN12 [II-14] | 0.31 | > 1000 | 
27 | O=C1c2c(O)c(=O)ccn2N([C@@H]2c3ccccc3SCc3cccc(F)c32)CN1C12CC(C1)C2 [Compound I-85] | 0.18 | > 1000 | 
28 | O=C1c2c(O)c(=O)ccn2N([C@@H]2c3ccccc3SCc3c2ccc(F)c3F)CN1C1C2CC1C2 (stereo partly drawn) [Compound I-65] | 0.37 | > 1000 | 
29 | O=C1c2c(O)c(=O)ccn2N([C@@H]2c3ccccc3SCc3cccc(F)c32)[C@@H]2COC3(CC3)CN12 [II-18] | 0.28 | > 1000 | 
30 | O=C1c2c(O)c(=O)ccn2N([C@@H]2c3ccccc3SCc3cccc(F)c32)CN1C1CC2(CCC2)C1 [Compound I-21] | 0.6 | > 1000 | 
31 | O=C1c2c(O)c(=O)ccn2N([C@H]2c3ccc(F)cc3CSc3ccccc32)[C@@H]2COCC3(CC3)N12 [II-13] |  | > 1000 | EC50 ([2]; MDCK): 0.38 nM
32 | O=C1c2c(O)c(=O)ccn2N([C@@H]2c3ccccc3SCc3c2ccc(F)c3F)[C@@H]2COCC3(CC3)N12 [II-5] |  | > 1000 | EC50 ([2]; MDCK): 0.22 nM; AUC(0-t) (in vivo): 187 ng·h/mL; Vd (in vivo): 3.69 L/kg; clearance (in vivo): 20.9 mL/min/kg; half-life (in vivo): 2.49 h
33 | O=C1c2c(O)c(=O)ccn2N([C@@H]2c3ccccc3SCc3cccc(Cl)c32)CN1C12CC(C1)C2 [Compound I-89] | 0.17 | > 1000 | 
34 | O=C(O)[C@H]1C2CCC(CC2)[C@@H]1Nc1nc(-c2c[nH]c3ncc(F)cc23)ncc1F [VX-787, reference compound] | 1.4 | > 100 | 
35 | O=C1c2c(O)c(=O)ccn2N([C@H]2c3ccccc3CSc3ccccc32)CN1C1CC2(COC2)C1 [Compound I-10] | 0.7 | > 1000 | 
36 | O=C1c2c(O)c(=O)ccn2N([C@@H]2c3ccccc3SCc3c2ccc(F)c3F)[C@@H]2COC3(COC3)CN12 [II-7] | 0.93 | > 1000 | 
37 | O=C1c2c(O)c(=O)ccn2N([C@@H]2c3ccccc3SCc3c(F)cccc32)CN1C12CC(C1)C2 [Compound I-81] | 0.19 | > 1000 | 
38 | O=C1c2c(O)c(=O)ccn2N([C@@H]2c3ccccc3SCc3c(F)cccc32)[C@@H]2COCC3(CC3)N12 [II-9] |  | > 1000 | EC50 ([2]; MDCK): 0.28 nM

Reference: patent publication US11247993B2, “Pyridone derivative, composition and use as antiviral drug thereof” (priority 2018, dated 2022)
